Measurements taken from ChEMBL document CHEMBL5653615 (J Biol Chem, 2013).

Columns and labels:
[1] = biological target: Calcium/calmodulin-dependent protein kinase type 1D (Homo sapiens) (UniProt Q8IU85); assay: Inhibition of human CAMK1d at 500 nM by HotSpot assay relative to control
[2] = biological target: T1, Serine/threonine-protein kinase Nek3 (Homo sapiens) (UniProt P51956); assay: Inhibition of human NEK3 at 500 nM by HotSpot assay relative to control
T1 sequence (whole entry): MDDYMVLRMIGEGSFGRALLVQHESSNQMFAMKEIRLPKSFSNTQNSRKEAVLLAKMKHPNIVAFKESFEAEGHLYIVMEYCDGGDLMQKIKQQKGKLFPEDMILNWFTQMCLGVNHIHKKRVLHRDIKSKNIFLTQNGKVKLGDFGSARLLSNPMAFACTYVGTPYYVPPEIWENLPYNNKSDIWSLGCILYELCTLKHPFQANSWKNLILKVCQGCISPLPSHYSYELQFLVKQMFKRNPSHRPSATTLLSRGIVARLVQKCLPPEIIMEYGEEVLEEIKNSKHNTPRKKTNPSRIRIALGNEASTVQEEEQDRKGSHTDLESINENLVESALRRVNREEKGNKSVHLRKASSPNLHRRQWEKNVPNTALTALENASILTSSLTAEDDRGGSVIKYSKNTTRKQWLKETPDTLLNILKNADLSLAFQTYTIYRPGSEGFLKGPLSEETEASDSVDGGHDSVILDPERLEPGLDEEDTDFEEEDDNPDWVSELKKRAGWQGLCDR

[3] = biological target: Proto-oncogene tyrosine-protein kinase receptor Ret (Homo sapiens) (UniProt P07949); assay: Inhibition of human RET at 500 nM by HotSpot assay relative to control
[4] = biological target: T2, G protein-coupled receptor kinase 3 (Homo sapiens) (UniProt P35626); assay: Inhibition of human GRK3 at 500 nM by HotSpot assay relative to control
T2 sequence (whole entry): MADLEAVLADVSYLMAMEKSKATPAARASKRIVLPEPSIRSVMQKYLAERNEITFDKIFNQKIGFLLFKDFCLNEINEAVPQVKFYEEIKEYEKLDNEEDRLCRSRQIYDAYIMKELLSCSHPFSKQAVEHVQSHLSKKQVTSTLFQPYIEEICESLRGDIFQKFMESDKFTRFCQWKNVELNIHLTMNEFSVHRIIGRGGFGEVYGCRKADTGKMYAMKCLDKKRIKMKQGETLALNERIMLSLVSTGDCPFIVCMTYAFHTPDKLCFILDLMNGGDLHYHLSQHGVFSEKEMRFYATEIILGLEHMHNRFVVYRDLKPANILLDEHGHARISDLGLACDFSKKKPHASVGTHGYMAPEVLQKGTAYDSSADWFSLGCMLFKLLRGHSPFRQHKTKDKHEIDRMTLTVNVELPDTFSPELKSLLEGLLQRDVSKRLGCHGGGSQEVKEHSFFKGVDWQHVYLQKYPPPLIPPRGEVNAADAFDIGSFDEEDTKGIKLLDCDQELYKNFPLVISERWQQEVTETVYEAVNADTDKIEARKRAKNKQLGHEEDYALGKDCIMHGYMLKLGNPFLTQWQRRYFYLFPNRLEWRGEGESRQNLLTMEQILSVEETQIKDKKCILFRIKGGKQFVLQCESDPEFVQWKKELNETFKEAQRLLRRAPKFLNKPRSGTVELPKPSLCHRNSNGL

[5] = biological target: Fibroblast growth factor receptor 2 (Homo sapiens) (UniProt P21802); assay: Inhibition of human FGFR2 at 500 nM by HotSpot assay relative to control
[6] = biological target: Homeodomain-interacting protein kinase 2 (Homo sapiens) (UniProt Q9H2X6); assay: Inhibition of human HIPK2 at 500 nM by HotSpot assay relative to control
[7] = biological target: T3, Inhibitor of nuclear factor kappa-B kinase subunit epsilon (Homo sapiens) (UniProt Q14164); assay: Inhibition of human IKKe at 500 nM by HotSpot assay relative to control
T3 sequence (whole entry): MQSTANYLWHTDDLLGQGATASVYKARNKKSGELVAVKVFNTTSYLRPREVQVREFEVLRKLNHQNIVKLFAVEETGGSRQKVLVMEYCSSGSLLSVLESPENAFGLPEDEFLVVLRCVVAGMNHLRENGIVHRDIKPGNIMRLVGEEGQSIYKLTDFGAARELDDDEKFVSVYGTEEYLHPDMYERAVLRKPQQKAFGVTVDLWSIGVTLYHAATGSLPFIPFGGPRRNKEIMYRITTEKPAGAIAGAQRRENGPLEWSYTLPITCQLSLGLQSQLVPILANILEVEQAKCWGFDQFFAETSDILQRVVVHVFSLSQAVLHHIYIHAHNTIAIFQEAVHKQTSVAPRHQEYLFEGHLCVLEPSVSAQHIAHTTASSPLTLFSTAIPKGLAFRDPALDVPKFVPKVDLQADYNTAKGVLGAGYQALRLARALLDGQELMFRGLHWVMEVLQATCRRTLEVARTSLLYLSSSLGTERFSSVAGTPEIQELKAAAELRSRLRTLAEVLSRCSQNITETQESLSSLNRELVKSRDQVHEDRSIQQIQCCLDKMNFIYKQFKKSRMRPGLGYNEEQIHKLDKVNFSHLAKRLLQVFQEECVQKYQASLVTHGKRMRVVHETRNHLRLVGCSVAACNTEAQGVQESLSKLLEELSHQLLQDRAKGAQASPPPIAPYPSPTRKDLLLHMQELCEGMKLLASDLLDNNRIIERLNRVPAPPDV

[8] = biological target: T4, Activin receptor type-1 (Homo sapiens) (UniProt Q04771); assay: Inhibition of human ALK2 at 500 nM by HotSpot assay relative to control
T4 sequence (whole entry): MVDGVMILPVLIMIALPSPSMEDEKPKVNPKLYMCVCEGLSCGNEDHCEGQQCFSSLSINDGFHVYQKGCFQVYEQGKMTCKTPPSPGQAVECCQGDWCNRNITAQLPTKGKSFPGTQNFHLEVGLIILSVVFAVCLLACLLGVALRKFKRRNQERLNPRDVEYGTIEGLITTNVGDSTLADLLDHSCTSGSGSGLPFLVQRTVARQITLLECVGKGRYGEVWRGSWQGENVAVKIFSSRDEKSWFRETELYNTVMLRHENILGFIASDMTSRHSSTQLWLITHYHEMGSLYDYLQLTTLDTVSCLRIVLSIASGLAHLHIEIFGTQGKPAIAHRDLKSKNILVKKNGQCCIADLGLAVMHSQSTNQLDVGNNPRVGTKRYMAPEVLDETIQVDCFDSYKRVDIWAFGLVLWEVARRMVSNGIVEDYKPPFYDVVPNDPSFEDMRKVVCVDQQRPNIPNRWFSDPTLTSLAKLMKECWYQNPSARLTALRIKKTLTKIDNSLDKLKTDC

[9] = biological target: Tyrosine-protein kinase HCK (Homo sapiens) (UniProt P08631); assay: Inhibition of human HCK at 500 nM by HotSpot assay relative to control
[10] = biological target: Serine/threonine-protein kinase 16 (Homo sapiens) (UniProt O75716); assay: Inhibition of human STK16 at 500 nM by HotSpot assay relative to control
Sequence of Serine/threonine-protein kinase 16 (Homo sapiens) (O75716 whole entry): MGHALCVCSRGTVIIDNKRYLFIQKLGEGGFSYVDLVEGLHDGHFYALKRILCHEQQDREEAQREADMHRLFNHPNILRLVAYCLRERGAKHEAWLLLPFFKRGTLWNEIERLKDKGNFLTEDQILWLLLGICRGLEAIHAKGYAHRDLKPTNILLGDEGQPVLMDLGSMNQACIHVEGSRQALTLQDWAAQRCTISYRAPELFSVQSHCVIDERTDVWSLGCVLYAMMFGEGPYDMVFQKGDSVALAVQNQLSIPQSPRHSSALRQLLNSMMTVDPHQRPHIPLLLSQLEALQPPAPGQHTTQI

Sequence of Proto-oncogene tyrosine-protein kinase receptor Ret (Homo sapiens) (P07949 whole entry): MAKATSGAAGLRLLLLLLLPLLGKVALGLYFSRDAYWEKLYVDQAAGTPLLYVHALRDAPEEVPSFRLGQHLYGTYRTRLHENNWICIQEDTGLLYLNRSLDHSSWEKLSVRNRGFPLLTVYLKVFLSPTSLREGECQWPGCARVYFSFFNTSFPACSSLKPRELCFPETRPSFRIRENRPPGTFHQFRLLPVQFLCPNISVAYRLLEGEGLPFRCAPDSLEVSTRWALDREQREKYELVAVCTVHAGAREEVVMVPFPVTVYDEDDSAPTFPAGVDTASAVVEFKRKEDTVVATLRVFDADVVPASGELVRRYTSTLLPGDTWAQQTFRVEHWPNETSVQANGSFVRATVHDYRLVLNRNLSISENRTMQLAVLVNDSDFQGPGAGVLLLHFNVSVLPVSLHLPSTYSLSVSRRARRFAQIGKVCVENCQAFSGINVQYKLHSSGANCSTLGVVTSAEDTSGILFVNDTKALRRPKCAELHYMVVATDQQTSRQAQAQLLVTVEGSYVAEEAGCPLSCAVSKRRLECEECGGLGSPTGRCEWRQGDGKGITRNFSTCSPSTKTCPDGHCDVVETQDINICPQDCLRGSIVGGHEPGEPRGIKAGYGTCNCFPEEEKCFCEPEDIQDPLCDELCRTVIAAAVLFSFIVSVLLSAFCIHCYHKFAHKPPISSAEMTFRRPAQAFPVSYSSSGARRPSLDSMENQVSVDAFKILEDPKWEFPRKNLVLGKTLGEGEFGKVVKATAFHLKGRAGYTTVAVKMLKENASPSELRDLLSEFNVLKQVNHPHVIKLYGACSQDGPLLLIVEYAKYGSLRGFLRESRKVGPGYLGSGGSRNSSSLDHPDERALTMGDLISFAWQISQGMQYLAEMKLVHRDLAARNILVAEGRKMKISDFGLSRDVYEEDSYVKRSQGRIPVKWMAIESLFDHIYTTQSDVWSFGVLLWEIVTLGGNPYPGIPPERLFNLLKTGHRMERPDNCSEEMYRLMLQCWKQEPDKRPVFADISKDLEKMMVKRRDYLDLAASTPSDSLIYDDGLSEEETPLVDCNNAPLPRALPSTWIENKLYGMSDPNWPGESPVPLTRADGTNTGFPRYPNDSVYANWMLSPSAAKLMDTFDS
Sequence of Fibroblast growth factor receptor 2 (Homo sapiens) (P21802 22-821 limits assumed): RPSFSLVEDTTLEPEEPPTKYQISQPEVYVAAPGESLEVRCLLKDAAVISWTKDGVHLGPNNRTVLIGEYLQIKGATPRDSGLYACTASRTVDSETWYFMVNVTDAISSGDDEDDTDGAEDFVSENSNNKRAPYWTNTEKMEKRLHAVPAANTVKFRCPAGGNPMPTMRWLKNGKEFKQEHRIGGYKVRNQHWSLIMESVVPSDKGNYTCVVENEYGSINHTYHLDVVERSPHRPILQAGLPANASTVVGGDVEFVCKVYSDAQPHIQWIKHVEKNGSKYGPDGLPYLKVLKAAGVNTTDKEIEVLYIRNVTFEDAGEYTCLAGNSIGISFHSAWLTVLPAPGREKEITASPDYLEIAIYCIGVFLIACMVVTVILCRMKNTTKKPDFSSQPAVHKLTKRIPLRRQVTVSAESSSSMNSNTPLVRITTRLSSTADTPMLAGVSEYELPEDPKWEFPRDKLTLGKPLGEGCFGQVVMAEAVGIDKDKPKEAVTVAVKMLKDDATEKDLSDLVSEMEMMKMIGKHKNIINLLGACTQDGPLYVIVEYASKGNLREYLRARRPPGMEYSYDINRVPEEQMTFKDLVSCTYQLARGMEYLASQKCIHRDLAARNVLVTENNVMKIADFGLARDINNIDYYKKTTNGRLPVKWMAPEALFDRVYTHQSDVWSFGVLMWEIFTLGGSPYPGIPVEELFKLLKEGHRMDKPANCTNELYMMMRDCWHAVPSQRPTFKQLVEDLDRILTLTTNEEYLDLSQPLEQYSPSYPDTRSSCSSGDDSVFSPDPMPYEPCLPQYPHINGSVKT
Sequence of Homeodomain-interacting protein kinase 2 (Homo sapiens) (Q9H2X6 whole entry, looked up): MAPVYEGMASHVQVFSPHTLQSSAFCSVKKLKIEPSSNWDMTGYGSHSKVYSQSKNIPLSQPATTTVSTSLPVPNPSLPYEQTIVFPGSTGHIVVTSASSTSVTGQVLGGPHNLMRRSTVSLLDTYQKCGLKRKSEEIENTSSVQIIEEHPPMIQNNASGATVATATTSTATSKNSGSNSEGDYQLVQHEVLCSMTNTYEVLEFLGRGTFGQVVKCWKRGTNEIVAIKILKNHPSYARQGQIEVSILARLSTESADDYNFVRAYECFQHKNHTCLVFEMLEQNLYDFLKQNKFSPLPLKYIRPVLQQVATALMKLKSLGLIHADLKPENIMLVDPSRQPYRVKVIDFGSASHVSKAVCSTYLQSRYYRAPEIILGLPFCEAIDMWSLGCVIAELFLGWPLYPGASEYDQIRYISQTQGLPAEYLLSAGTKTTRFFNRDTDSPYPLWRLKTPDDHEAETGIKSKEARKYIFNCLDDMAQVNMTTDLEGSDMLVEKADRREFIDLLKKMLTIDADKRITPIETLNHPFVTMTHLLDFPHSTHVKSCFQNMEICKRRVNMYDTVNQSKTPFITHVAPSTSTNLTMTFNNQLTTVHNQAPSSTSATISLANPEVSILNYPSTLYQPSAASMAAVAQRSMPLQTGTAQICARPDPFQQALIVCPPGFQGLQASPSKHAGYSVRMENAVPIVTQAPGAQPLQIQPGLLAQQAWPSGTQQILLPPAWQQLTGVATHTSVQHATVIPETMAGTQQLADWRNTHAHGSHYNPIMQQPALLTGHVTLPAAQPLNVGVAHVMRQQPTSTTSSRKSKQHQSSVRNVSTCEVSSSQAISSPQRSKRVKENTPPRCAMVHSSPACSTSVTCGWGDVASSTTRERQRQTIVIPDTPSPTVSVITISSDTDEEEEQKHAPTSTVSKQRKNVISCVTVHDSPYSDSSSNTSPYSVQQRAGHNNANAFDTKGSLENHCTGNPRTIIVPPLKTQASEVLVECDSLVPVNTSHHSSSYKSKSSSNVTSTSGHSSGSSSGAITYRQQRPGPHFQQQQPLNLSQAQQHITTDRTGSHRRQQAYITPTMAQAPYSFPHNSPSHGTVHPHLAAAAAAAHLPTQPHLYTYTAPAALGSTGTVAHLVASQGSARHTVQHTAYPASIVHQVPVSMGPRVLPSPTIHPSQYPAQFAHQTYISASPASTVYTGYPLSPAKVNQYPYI
Sequence of Tyrosine-protein kinase HCK (Homo sapiens) (P08631 2-526 limits assumed): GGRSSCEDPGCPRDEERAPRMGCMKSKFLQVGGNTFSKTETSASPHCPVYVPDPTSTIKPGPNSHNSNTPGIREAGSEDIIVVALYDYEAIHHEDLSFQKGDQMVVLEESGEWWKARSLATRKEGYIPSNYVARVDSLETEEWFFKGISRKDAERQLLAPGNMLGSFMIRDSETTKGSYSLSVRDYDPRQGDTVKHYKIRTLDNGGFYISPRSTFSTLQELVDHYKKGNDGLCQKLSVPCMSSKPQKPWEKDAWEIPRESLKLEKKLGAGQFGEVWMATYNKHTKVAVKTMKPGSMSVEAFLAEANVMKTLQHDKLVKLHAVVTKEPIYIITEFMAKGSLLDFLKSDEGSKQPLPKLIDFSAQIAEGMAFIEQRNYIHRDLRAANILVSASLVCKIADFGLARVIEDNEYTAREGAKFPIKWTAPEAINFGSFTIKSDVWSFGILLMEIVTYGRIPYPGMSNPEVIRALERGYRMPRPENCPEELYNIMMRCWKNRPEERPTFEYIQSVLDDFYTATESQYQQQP
Sequence of Calcium/calmodulin-dependent protein kinase type 1D (Homo sapiens) (Q8IU85 whole entry, looked up): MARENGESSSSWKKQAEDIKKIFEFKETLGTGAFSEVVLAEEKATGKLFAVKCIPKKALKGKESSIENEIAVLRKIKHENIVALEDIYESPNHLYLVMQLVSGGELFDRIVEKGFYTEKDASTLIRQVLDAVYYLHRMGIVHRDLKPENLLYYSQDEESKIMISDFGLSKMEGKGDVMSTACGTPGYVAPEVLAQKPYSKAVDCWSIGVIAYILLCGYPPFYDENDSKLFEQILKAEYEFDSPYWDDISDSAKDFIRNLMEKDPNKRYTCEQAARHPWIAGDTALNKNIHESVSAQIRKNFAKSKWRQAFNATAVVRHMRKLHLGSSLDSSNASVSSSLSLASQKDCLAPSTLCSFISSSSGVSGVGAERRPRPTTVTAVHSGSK

| SMILES | inhibition [1] [%] | inhibition [2] [%] | inhibition [3] [%] | inhibition [4] [%] | inhibition [5] [%] | inhibition [6] [%] | inhibition [7] [%] | inhibition [8] [%] | inhibition [9] [%] | inhibition [10] [%] |
| --- | --- | --- | --- | --- | --- | --- | --- | --- | --- | --- |
| Oc1n[nH]c2nnc(-c3c(-c4ccccc4)nn4ccccc34)cc12 | -3.04 | 12.8 | -3.97 | -1.47 | -0.03 | -0.79 | 0.81 | 0.23 | 7.7 | 1.39 |
| Nc1n[nH]c2nnc(-c3c(-c4ccccc4)nn4ccccc34)cc12 | 4.06 | 17.3 | 6.33 | -0.84 | -1.79 | 0.35 | 4.54 | -7.19 | 8.92 | -7.84 |
